Experimental data: ChEMBL document CHEMBL5608200, “Design, synthesis, and evaluation of antitumor activity of 2-arylmethoxy-4-(2-fluoromethyl-biphenyl-3-ylmethoxy) benzylamine derivatives as PD-1/PD-l1 inhibitors” (Eur J Med Chem, 2024)

Tests used:
[1] = target: Programmed cell death protein 1/Programmed cell death 1 ligand 1 (Homo sapiens, UniProt Q9NZQ7); test: Inhibition of human PD-1 to PD-L1 protein-protein interaction by homogeneous-time resolved fluorescence assay; type: protein-complex assay
Programmed cell death protein 1/Programmed cell death 1 ligand 1, sequence (Q15116 whole entry): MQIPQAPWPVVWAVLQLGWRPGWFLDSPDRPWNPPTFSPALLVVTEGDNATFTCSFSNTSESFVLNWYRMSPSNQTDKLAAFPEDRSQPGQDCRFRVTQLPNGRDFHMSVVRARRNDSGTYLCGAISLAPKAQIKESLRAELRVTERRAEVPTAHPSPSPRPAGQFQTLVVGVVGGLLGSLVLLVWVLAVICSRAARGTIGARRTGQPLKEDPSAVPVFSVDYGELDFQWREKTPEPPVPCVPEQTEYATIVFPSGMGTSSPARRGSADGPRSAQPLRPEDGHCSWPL
Programmed cell death protein 1/Programmed cell death 1 ligand 1, sequence (Q9NZQ7 whole entry): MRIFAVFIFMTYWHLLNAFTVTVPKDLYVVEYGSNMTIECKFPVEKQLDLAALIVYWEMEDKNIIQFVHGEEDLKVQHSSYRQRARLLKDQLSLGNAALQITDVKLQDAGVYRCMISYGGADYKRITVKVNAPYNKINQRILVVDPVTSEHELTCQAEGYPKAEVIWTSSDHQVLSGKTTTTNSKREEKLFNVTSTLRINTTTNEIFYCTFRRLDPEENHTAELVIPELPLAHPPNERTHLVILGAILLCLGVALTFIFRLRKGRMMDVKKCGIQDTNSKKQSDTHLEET

[2] = target: Programmed cell death protein 1/Programmed cell death 1 ligand 1 (Homo sapiens) (UniProt Q15116+Q9NZQ7); conditions: HEK293T, dose 100.0 nM, time 30.0 min
[3] = Half-life in Sprague-Dawley rat at 10 mg/kg, iv measured upto 48 hrs by LC-MS/MS analysis; type: ADME, organism-based; conditions: in vivo
[4] = AUC(0 to t) in Sprague-Dawley rat at 50 mg/kg, IG measured upto 48 hrs by LC-MS/MS analysis; type: ADME, organism-based; conditions: in vivo, po
[5] = Tmax in Sprague-Dawley rat at 50 mg/kg, IG measured upto 48 hrs by LC-MS/MS analysis; type: ADME, organism-based; conditions: in vivo, po
[6] = Apparent volume of distribution in Sprague-Dawley rat at 10 mg/kg, iv measured upto 48 hrs by LC-MS/MS analysis; type: ADME, organism-based; conditions: in vivo
[7] = Cmax in Sprague-Dawley rat at 10 mg/kg, iv measured upto 48 hrs by LC-MS/MS analysis; type: ADME, organism-based; conditions: in vivo
[8] = Half-life in Sprague-Dawley rat at 50 mg/kg, IG measured upto 48 hrs by LC-MS/MS analysis; type: ADME, organism-based; conditions: in vivo, po
[9] = Apparent volume of distribution in Sprague-Dawley rat at 50 mg/kg, IG measured upto 48 hrs by LC-MS/MS analysis; type: ADME, organism-based; conditions: in vivo, po
[10] = Clearance in Sprague-Dawley rat at 50 mg/kg, IG measured upto 48 hrs by LC-MS/MS analysis; type: ADME, organism-based; conditions: in vivo, po
[11] = AUC(0 to infinity) in Sprague-Dawley rat at 50 mg/kg, IG measured upto 48 hrs by LC-MS/MS analysis; type: ADME, organism-based; conditions: in vivo, po
MC-38 = test: Antitumor activity against mouse MC38 cells expressing hPD-L1 implanted in PD-1/PD-L1 humanized C57BL/6 mouse assessed as tumor growth inhibition at 50 mg/kg, IG; type: functional; conditions: MC-38, po, read-out: TGI
[12] = Cmax in Sprague-Dawley rat at 50 mg/kg, IG measured upto 48 hrs by LC-MS/MS analysis; type: ADME, organism-based; conditions: in vivo, po
[13] = Clearance in Sprague-Dawley rat at 10 mg/kg, iv measured upto 48 hrs by LC-MS/MS analysis; type: ADME, organism-based; conditions: in vivo
[14] = Tmax in Sprague-Dawley rat at 10 mg/kg, iv measured upto 48 hrs by LC-MS/MS analysis; type: ADME, organism-based; conditions: in vivo
[15] = AUC(0 to t) in Sprague-Dawley rat at 10 mg/kg, iv measured upto 48 hrs by LC-MS/MS analysis; type: ADME, organism-based; conditions: in vivo
[16] = AUC(0 to infinity) in Sprague-Dawley rat at 10 mg/kg, iv measured upto 48 hrs by LC-MS/MS analysis; type: ADME, organism-based; conditions: in vivo
[17] = Cytotoxicity against human PBMCs at 1 to 4 uM by CCK-8 assay; type: toxicity, cell-based; conditions: pbmc, dose 1-4 µM
[18] = Oral bioavilability in Sprague-Dawley rat at 50 mg/kg measured upto 48 hrs by LC-MS/MS analysis; type: ADME, organism-based; conditions: in vivo

| SMILES | IC50 [1] [nM] | further results |
| --- | --- | --- |
| N#Cc1cncc(COc2cc(OCc3cccc(-c4ccccc4F)c3CF)ccc2CN2CCCCC2C(=O)O)c1 (stereo not drawn) | 27 | – |
| N#Cc1cccc(COc2cc(OCc3cccc(-c4ccccc4F)c3C(F)F)ccc2CNCCO)c1 | 100 | – |
| N#Cc1cncc(COc2cc(OCc3cccc(-c4ccc5c(c4)OCCO5)c3CF)ccc2CN2CCC(C(=O)O)C2)c1 (stereo not drawn) | 14.9 | inhibition [2]: 18.4% |
| CC(=O)NCCNCc1ccc(OCc2cccc(-c3ccccc3F)c2CF)cc1OCc1cncc(C#N)c1 | 31.4 | – |
| N#Cc1cccc(COc2cc(OCc3cccc(-c4ccccc4F)c3C(F)F)ccc2CN[C@@H](CO)C(=O)O)c1 | 100 | – |
| N#Cc1cncc(COc2cc(OCc3cccc(-c4ccccc4F)c3CF)ccc2CN2CCC[C@H]2C(=O)O)c1 | 6.9 | inhibition [2]: 15.4% |
| N#Cc1cncc(COc2cc(OCc3cccc(-c4ccccc4F)c3CF)ccc2CN[C@@H](CO)C(=O)O)c1 | 12.7 | – |
| CC(=O)NCCNCc1ccc(OCc2cccc(-c3ccccc3F)c2CF)cc1OCc1cccc(C#N)c1 | 100 | – |
| N#Cc1cncc(COc2cc(OCc3cccc(-c4ccccc4F)c3C(F)F)ccc2CN2CCC[C@H]2C(=O)O)c1 | 120 | – |
| CC(=O)NCCNCc1ccc(OCc2cccc(-c3ccc4c(c3)OCCO4)c2CF)cc1OCc1cncc(C#N)c1 | 24.9 | – |
| N#Cc1cncc(COc2cc(OCc3cccc(-c4ccccc4F)c3C(F)F)ccc2CNCCO)c1 | 41.9 | – |
| N#Cc1cncc(COc2cc(OCc3cccc(-c4ccccc4F)c3CF)ccc2CNCCO)c1 | 24.9 | – |
| N#Cc1cncc(COc2cc(OCc3cccc(-c4cc(F)ccc4F)c3CF)ccc2CN[C@@H](CO)C(=O)O)c1 | 20.9 | – |
| N#Cc1cccc(COc2cc(OCc3cccc(-c4ccccc4F)c3CF)ccc2CN2CCC[C@H]2C(=O)O)c1 | 10 | – |
| OCC(O)CNCc1ccc(OCc2cccc(-c3ccc4c(c3)OCCO4)c2C(F)F)cc1OCc1cccnc1 (stereo not drawn) | 67.5 | – |
| N#Cc1cccc(COc2cc(OCc3cccc(-c4ccccc4F)c3CF)ccc2CNCCO)c1 | 100 | – |
| CN(C)CCNCc1ccc(OCc2cccc(-c3ccc4c(c3)OCCO4)c2C(F)F)cc1OCc1cccnc1 | 100 | – |
| N#Cc1cncc(COc2cc(OCc3cccc(-c4ccc5c(c4)OCCO5)c3C(F)F)ccc2CNCC(O)CO)c1 (stereo not drawn) | 9.5 | inhibition [2]: 17% |
| N#Cc1cncc(COc2cc(OCc3cccc(-c4ccccc4F)c3C(F)F)ccc2CNCC(=O)O)c1 | 154 | – |

| SMILES | IC50 [1] [nM] | further results |
| --- | --- | --- |
| CC(=O)NCCNCc1ccc(OCc2cccc(-c3ccccc3F)c2C(F)F)cc1OCc1cncc(C#N)c1 | 100 | – |
| N#Cc1cncc(COc2cc(OCc3cccc(-c4ccccc4)c3C(F)(F)F)ccc2CN[C@@H](CO)C(=O)O)c1 | 58.6 | – |
| N#Cc1cncc(COc2cc(OCc3cccc(-c4ccccc4F)c3CF)ccc2CNCC(=O)O)c1 | 28.4 | – |
| N#Cc1cncc(COc2cc(OCc3cccc(-c4ccc5c(c4)OCCO5)c3CF)ccc2CNCCO)c1 | 11.9 | inhibition [2]: 17.3% |
| CC(=O)NCCNCc1ccc(OCc2cccc(-c3cc(F)ccc3F)c2CF)cc1OCc1cncc(C#N)c1 | 100 | – |
| N#Cc1cncc(COc2cc(OCc3cccc(-c4ccccc4F)c3CF)ccc2CN2CC(C(=O)O)C2)c1 | 18.8 | inhibition [2]: 20.5% |
| N#Cc1cncc(COc2cc(OCc3cccc(-c4ccc5c(c4)OCCO5)c3CF)ccc2CNCC(=O)O)c1 | 100 | – |
| CC(=O)NCCNCc1ccc(OCc2cccc(-c3ccc4c(c3)OCCO4)c2C(F)F)cc1OCc1cncc(C#N)c1 | 17.2 | inhibition [2]: 18.4% |
| CN(C)CCNCc1ccc(OCc2cccc(-c3ccc4c(c3)OCCO4)c2C(F)F)cc1OCc1cncc(C#N)c1 | 29.5 | – |
| N#Cc1cncc(COc2cc(OCc3cccc(-c4cc(F)ccc4F)c3CF)ccc2CNCCO)c1 | 42 | – |
| N#Cc1cncc(COc2cc(OCc3cccc(-c4ccc5c(c4)OCCO5)c3CF)ccc2CN2CCCCC2C(=O)O)c1 (stereo not drawn) | 100 | – |
| N#Cc1cncc(COc2cc(OCc3cccc(-c4ccccc4F)c3C(F)F)ccc2CN[C@@H](CO)C(=O)O)c1 | 16.9 | – |
| N#Cc1cncc(COc2cc(OCc3cccc(-c4ccccc4F)c3CF)ccc2CN2CCC(C(=O)O)C2)c1 (stereo not drawn) | 25.2 | – |
| N#Cc1cncc(COc2cc(OCc3cccc(-c4ccccc4)c3C(F)(F)F)ccc2CNCCO)c1 | 93.8 | – |
| N#Cc1cncc(COc2cc(OCc3cccc(-c4ccccc4F)c3CF)ccc2CN[C@H](CO)C(=O)O)c1 | 10 | – |
| N#Cc1cncc(COc2cc(OCc3cccc(-c4ccc5c(c4)OCCO5)c3C(F)F)ccc2CN2CCC[C@H]2C(=O)O)c1 | 19.4 | inhibition [2]: 21.7% |
| N#Cc1cncc(COc2cc(OCc3cccc(-c4ccccc4F)c3CF)ccc2CN2CCC(O)C2)c1 (stereo not drawn) | 55.8 | – |
| N#Cc1cncc(COc2cc(OCc3cccc(-c4ccc5c(c4)OCCO5)c3CF)ccc2CN[C@@H](CO)C(=O)O)c1 | 19.7 | inhibition [2]: 22% |
| COc1nc(OCc2cccc(-c3ccccc3)c2C)ccc1CNCCNC(C)=O | – | t1/2 [3]: 1.94 h; AUC(0-t) at 48 h [4]: 16800 ng·h/mL; Tmax [5]: 2.1 h; inhibition [2]: 34.6%; Vz [6]: 12.46 L/kg; Cmax [7]: 3350 ng/mL; t1/2 [8]: 3.13 h; Vz [9]: 56.85 L/kg; CL [10]: 49.2 mL/min/kg; AUC(0-inf) [11]: 16900 ng·h/mL; inhibition in vivo at 50 mg/kg (MC-38): 44.6%; Cmax [12]: 5730 ng/mL; CL [13]: 19.2 mL/min/kg; Tmax [14]: 7.2 min; AUC(0-t) at 48 h [15]: 8600 ng·h/mL; AUC(0-inf) [16]: 8710 ng·h/mL; Activity [17]: Non-Toxic; bioavailability [18]: 39.1% |
